According to patent US9023789B2, “Amylin analogs and pharmaceutical compositions thereof” (Novo Nordisk A/S, priority 2012, dated 2015):
Values after ≈ are worked out from the molar mass of the structure shown. Where two headings read alike, the source gives them in different places. Numbered stars: 1 amine (or outer) side, 2 acyl side, 3 side chain; on linkers, the order of the positions; unused ones are H or OH. Bridge positions count the residues as written; N and C are the ends. Side chains are listed from the residue outwards. Peptide text beside a SMILES is read from it. * marks the point of attachment. C20 diacid = O=C(O)CCCCCCCCCCCCCCCCCCC(=O)*; γGlu = O=C(O)[C@H](CCC(=O)[*:2])N[*:1]; AEEA = NCCOCCOCC(=O)O

Key:
[1] = ASSAY (III) ThT fibrillation assay for physical stability; assay type: physicochemical
Outline: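 Formulations with 1 μM ThT, pH adjusted as required, incubated at 37 °C with 960 rpm orbital shaking; fluorescence (ex 444/em 485 nm) read every 20 min. Fibrillation reported as mean ThT fluorescence ± SD of 4–8 replicates at time points; polypeptide concentration measured by reverse-phase HPLC before and after, post-centrifugation.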

[2] = ASSAY (IV) determination of solubility; assay type: physicochemical
Outline: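 Polypeptide stock in water ([…]) was mixed 1:1 with 100 mM buffers: glycylglycine at pH 3.0, 4.0, 5.0 and bistrispropane at pH 6.0, 6.5, 7.0, 7.5, 8.0. After 18 hours at room temperature, samples were centrifuged and polypeptide concentration measured by UPLC.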

Sprague Dawley (SD) rats = assay: ASSAY (I) efficacy testing on appetite (food intake) using an ad libitum fed rat model; assay type: in vivo; conditions: rat
Outline: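 Ad libitum fed SD rats (200–250 g) were housed singly on a reversed light/dark cycle and given one 0.01–3 mg/kg dose ip, po or sc just before lights-off, with 5–8 per dose group plus vehicle controls. Food intake was recorded hourly for 7 h, then at 24 h and sometimes 48 h; Grubbs outliers were excluded.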

[3] = bistrispropane buffer, pH 6.5, read-out: Solubility pH 6.5 Concentration
[4] = bistrispropane buffer, pH 7.5, read-out: Solubility pH 7.5 Concentration
[5] = bistrispropane buffer, pH 6.0, read-out: Solubility pH 6.0 Concentration
[6] = bistrispropane buffer, pH 7.0, read-out: Solubility pH 7.0 Concentration
[7] = bistrispropane buffer, pH 8.0, read-out: Solubility pH 8.0 Concentration
[8] = glycylglycine buffer, pH 3.0, read-out: Solubility pH 3.0 Concentration
[9] = glycylglycine buffer, pH 4.0, read-out: Solubility pH 4.0 Concentration
[10] = glycylglycine buffer, pH 5.0, read-out: Solubility pH 5.0 Concentration

Structure (SMILES) | ThT pH 4.0 lag time (h) [1] | solubility at 18 h [2, 3] | solubility at 18 h [2, 4] | solubility at 18 h [2, 5] | solubility at 18 h [2, 6] | solubility at 18 h [2, 7] | solubility at 18 h [2, 8] | solubility at 18 h [2, 9] | solubility at 18 h [2, 10] | Food intake reduction 0-24 h 30 nmol/kg (%) (Sprague Dawley (SD) rats; 0-24 h) | Food intake reduction 24-48 h 30 nmol/kg (%) (Sprague Dawley (SD) rats; 24-48 h) | Food intake reduction 0-24 h 3 nmol/kg (%) (Sprague Dawley (SD) rats; 3 nmol/kg, 0-24 h) | Food intake reduction 24-48 h 3 nmol/kg (%) (Sprague Dawley (SD) rats; 3 nmol/kg, 24-48 h)
CC[C@H](C)[C@H](NC(=O)[C@H](C)NC(=O)CNC(=O)[C@H](Cc1ccccc1)NC(=O)[C@H](CC(N)=O)NC(=O)[C@@H]1CCCN1C(=O)[C@H](CO)NC(=O)[C@H](CO)NC(=O)[C@H](Cc1c[nH]cn1)NC(=O)[C@H](CCCNC(=N)N)NC(=O)[C@H](CC(C)C)NC(=O)[C@H](Cc1ccccc1)NC(=O)[C@H](Cc1c[nH]cn1)NC(=O)[C@H](C)NC(=O)[C@H](CC(C)C)NC(=O)[C@H](CCCNC(=N)N)NC(=O)[C@H](CCC(N)=O)NC(=O)[C@@H](NC(=O)[C@H](C)NC(=O)[C@@H]1CSSC[C@H](NC(=O)[C@@H](N)CCCCNC(=O)CC[C@H](NC(=O)CCCCCCCCCCCCCCCCCCC(=O)O)C(=O)O)C(=O)N[C@@H](CC(N)=O)C(=O)N[C@@H]([C@@H](C)O)C(=O)N[C@@H](C)C(=O)N[C@@H]([C@@H](C)O)C(=O)N1)[C@@H](C)O)C(=O)N1CCC[C@H]1C(=O)N[C@@H](CO)C(=O)N[C@@H](CO)C(=O)N[C@H](C(=O)N[C@@H](CC(N)=O)C(=O)N[C@H](C(=O)NCC(=O)N[C@@H](CCCNC(=N)N)C(=O)N[C@@H](CC(N)=O)C(=O)N[C@H](C(=O)N[C@@H](Cc1ccc(O)cc1)C(N)=O)[C@@H](C)O)C(C)C)[C@@H](C)O [Example 85] (H-K([γGlu-C20 diacid])CNTATCATQRLAHFLRHSSPNFGAIPSSTNVGRNTY-NH2; disulfide 2-7 (inferred); N-terminus assumed) | 45 h | ≥ 200 µM | ≥ 200 µM | ≥ 200 µM | ≥ 200 µM | ≥ 200 µM | ≥ 200 µM | ≥ 200 µM | ≥ 200 µM | 30% | 6% | – | –
CC[C@H](C)[C@H](NC(=O)[C@H](C)NC(=O)CNC(=O)[C@H](Cc1ccccc1)NC(=O)[C@H](CC(N)=O)NC(=O)[C@@H]1CCCN1C(=O)[C@H](CO)NC(=O)[C@H](CO)NC(=O)[C@H](Cc1c[nH]cn1)NC(=O)[C@H](CCCNC(=N)N)NC(=O)[C@H](CC(C)C)NC(=O)[C@H](Cc1ccccc1)NC(=O)[C@H](CCC(=O)O)NC(=O)[C@H](C)NC(=O)[C@H](CC(C)C)NC(=O)[C@H](CCCNC(=N)N)NC(=O)[C@H](CCC(N)=O)NC(=O)[C@@H](NC(=O)[C@H](C)NC(=O)[C@@H]1CSSC[C@H](NC(=O)[C@@H](N)CCCCNC(=O)CC[C@H](NC(=O)CC[C@H](NC(=O)CCCCCCCCCCCCCCCCCCC(=O)O)C(=O)O)C(=O)O)C(=O)N[C@@H](CC(N)=O)C(=O)N[C@@H]([C@@H](C)O)C(=O)N[C@@H](C)C(=O)N[C@@H]([C@@H](C)O)C(=O)N1)[C@@H](C)O)C(=O)N1CCC[C@H]1C(=O)N[C@@H](CO)C(=O)N[C@@H](CO)C(=O)N[C@H](C(=O)N[C@@H](CC(N)=O)C(=O)N[C@H](C(=O)NCC(=O)N1CCC[C@H]1C(=O)N[C@@H](CCC(=O)O)C(=O)N[C@H](C(=O)N[C@@H](Cc1ccc(O)cc1)C(N)=O)[C@@H](C)O)C(C)C)[C@@H](C)O [Example 106] (H-K([γGlu-γGlu-C20 diacid])CNTATCATQRLAEFLRHSSPNFGAIPSSTNVGPETY-NH2; disulfide 2-7; N-terminus assumed) | 33 h | ≥ 200 µM | ≥ 200 µM | ≥ 200 µM | ≥ 200 µM | ≥ 200 µM | ≥ 200 µM | ≥ 200 µM | ≥ 200 µM | 63% | 69% | – | –
CC[C@H](C)[C@H](NC(=O)[C@H](C)NC(=O)CNC(=O)[C@H](Cc1ccccc1)NC(=O)[C@H](CC(N)=O)NC(=O)[C@@H]1CCCN1C(=O)[C@H](CO)NC(=O)[C@H](CO)NC(=O)[C@H](Cc1c[nH]cn1)NC(=O)[C@H](CCCNC(=N)N)NC(=O)[C@H](CC(C)C)NC(=O)[C@H](Cc1ccccc1)NC(=O)[C@H](CC(N)=O)NC(=O)[C@H](C)NC(=O)[C@H](CC(C)C)NC(=O)[C@H](CCCNC(=N)N)NC(=O)[C@H](CCC(N)=O)NC(=O)[C@@H](NC(=O)[C@H](C)NC(=O)[C@@H]1CSSC[C@H](NC(=O)[C@@H](N)CCCCNC(=O)COCCOCCNC(=O)CC[C@H](NC(=O)CCCCCCCCCCCCCCCCCCC(=O)O)C(=O)O)C(=O)N[C@@H](CC(N)=O)C(=O)N[C@@H]([C@@H](C)O)C(=O)N[C@@H](C)C(=O)N[C@@H]([C@@H](C)O)C(=O)N1)[C@@H](C)O)C(=O)N1CCC[C@H]1C(=O)N[C@@H](CO)C(=O)N[C@@H](CO)C(=O)N[C@H](C(=O)N[C@@H](CC(N)=O)C(=O)N[C@H](C(=O)NCC(=O)N[C@@H](CO)C(=O)N[C@@H](CCCNC(=N)N)C(=O)N[C@H](C(=O)N[C@@H](Cc1ccc(O)cc1)C(N)=O)[C@@H](C)O)C(C)C)[C@@H](C)O [Example 38] | 27 h | ≥ 200 µM | ≥ 200 µM | ≥ 200 µM | ≥ 200 µM | ≥ 200 µM | ≥ 200 µM | ≥ 200 µM | ≥ 200 µM | 47% | 0% | – | –
CC[C@H](C)[C@H](NC(=O)[C@H](C)NC(=O)CNC(=O)[C@H](Cc1ccccc1)NC(=O)[C@H](CC(N)=O)NC(=O)[C@@H]1CCCN1C(=O)[C@H](CO)NC(=O)[C@H](CO)NC(=O)[C@H](Cc1c[nH]cn1)NC(=O)[C@H](CCCNC(=N)N)NC(=O)[C@H](CC(C)C)NC(=O)[C@H](Cc1ccccc1)NC(=O)[C@H](Cc1c[nH]cn1)NC(=O)[C@H](C)NC(=O)[C@H](CC(C)C)NC(=O)[C@H](CCCNC(=N)N)NC(=O)[C@H](CCC(N)=O)NC(=O)[C@@H](NC(=O)[C@H](C)NC(=O)[C@@H]1CSSC[C@H](NC(=O)[C@@H](N)CCCCNC(=O)COCCOCCNC(=O)CC[C@H](NC(=O)CCCCCCCCCCCCCCCCCCC(=O)O)C(=O)O)C(=O)N[C@@H](CC(N)=O)C(=O)N[C@@H]([C@@H](C)O)C(=O)N[C@@H](C)C(=O)N[C@@H]([C@@H](C)O)C(=O)N1)[C@@H](C)O)C(=O)N1CCC[C@H]1C(=O)N[C@@H](CO)C(=O)N[C@@H](CO)C(=O)N[C@H](C(=O)N[C@@H](CC(N)=O)C(=O)N[C@H](C(=O)NCC(=O)N1CCC[C@H]1C(=O)N[C@@H](CC(N)=O)C(=O)N[C@H](C(=O)N[C@@H](Cc1ccc(O)cc1)C(N)=O)[C@@H](C)O)C(C)C)[C@@H](C)O [Example 68] (H-K([AEEA-γGlu-C20 diacid])CNTATCATQRLAHFLRHSSPNFGAIPSSTNVGPNTY-NH2; disulfide 2-7) | 24 h | ≥ 200 µM | 193 µM (≈ 880 µg/mL) | ≥ 200 µM | ≥ 200 µM | 138 µM (≈ 631 µg/mL) | ≥ 200 µM | ≥ 200 µM | ≥ 200 µM | 33% | 0% | – | –
CC[C@H](C)[C@H](NC(=O)[C@H](C)NC(=O)CNC(=O)[C@H](Cc1ccccc1)NC(=O)[C@H](CC(N)=O)NC(=O)[C@@H]1CCCN1C(=O)[C@H](CO)NC(=O)[C@H](CO)NC(=O)[C@H](Cc1c[nH]cn1)NC(=O)[C@H](CCCNC(=N)N)NC(=O)[C@H](CC(C)C)NC(=O)[C@H](Cc1ccccc1)NC(=O)[C@H](CC(=O)O)NC(=O)[C@H](C)NC(=O)[C@H](CC(C)C)NC(=O)[C@H](CCCNC(=N)N)NC(=O)[C@H](CCC(N)=O)NC(=O)[C@@H](NC(=O)[C@H](C)NC(=O)[C@@H]1CSSC[C@H](NC(=O)[C@@H](N)CCCCNC(=O)CC[C@H](NC(=O)CC[C@H](NC(=O)CCCCCCCCCCCCCCCCCCC(=O)O)C(=O)O)C(=O)O)C(=O)N[C@@H](CC(N)=O)C(=O)N[C@@H]([C@@H](C)O)C(=O)N[C@@H](C)C(=O)N[C@@H]([C@@H](C)O)C(=O)N1)[C@@H](C)O)C(=O)N1CCC[C@H]1C(=O)N[C@@H](CO)C(=O)N[C@@H](CO)C(=O)N[C@H](C(=O)N[C@@H](CC(N)=O)C(=O)N[C@H](C(=O)NCC(=O)N1CCC[C@H]1C(=O)N[C@@H](CCC(=O)O)C(=O)N[C@H](C(=O)N[C@@H](Cc1ccc(O)cc1)C(N)=O)[C@@H](C)O)C(C)C)[C@@H](C)O [Example 122] (H-K([γGlu-γGlu-C20 diacid])CNTATCATQRLADFLRHSSPNFGAIPSSTNVGPETY-NH2; disulfide 2-7 (inferred); N-terminus assumed) | 45 h | ≥ 200 µM | ≥ 200 µM | ≥ 200 µM | ≥ 200 µM | ≥ 200 µM | ≥ 200 µM | ≥ 200 µM | ≥ 200 µM | – | – | 50% | 50%
